From ChEMBL document CHEMBL4419167, “Compositions and methods for treating respiratory injury or disease” (2018)
Activity calls are given as the source filed them.

Assays:
Type in all cases: functional, organism-based
[1] = system: Mus musculus; experiment: Suppression of smoke-induced chronic lung inflammation in mouse assessed as reduction in lavage cell counts at 100 ug, ip administered as single dose injected after 5 weeks cigarette smoke exposure
[2] = system: Mus musculus; experiment: Suppression of smoke-induced chronic lung inflammation in mouse assessed as reduction in lavage protein concentration at 100 ug, ip administered as single dose injected after 5 weeks cigarette smoke exposure
[3] = system: Mus musculus; experiment: Suppression of lung injury in mouse model of Pseudomonas aeruginosa PA103 infection-induced pneumonia assessed as reduction in cell infiltration at 30 or 150 ug, ip pre-treated before infection by H and E staining based assay
[4] = system: Mus musculus; experiment: Suppression of dexamethasone-induced muscle atrophy in C57BL mouse assessed as reduction in tibialis anterior muscle loss at 0.5 to 5 mg/kg/day dosed via drinking water
[5] = system: Mus musculus; experiment: Suppression of smoke-induced chronic lung inflammation in mouse assessed as reduction in lavage IL-1beta levels at 100 ug, ip administered as single dose injected after 5 weeks cigarette smoke exposure
[6] = system: Mus musculus; experiment: Suppression of IMQ-induced psoriasis in BALB/c mouse model of skin inflammation assessed as reduction in ear thickness at 1 or 5 mg/kg dosed via drinking water on daily basis
[7] = system: Mus musculus; experiment: Suppression of smoke-induced chronic lung inflammation in mouse assessed as reduction in lavage IL10 levels at 100 ug, ip administered as single dose injected after 5 weeks cigarette smoke exposure
[8] = system: Mus musculus; experiment: Suppression of smoke-induced chronic lung inflammation in mouse assessed as reduction in lavage IL12 levels at 100 ug, ip administered as single dose injected after 5 weeks cigarette smoke exposure
[9] = system: Mus musculus; experiment: Suppression of IMQ-induced psoriasis in BALB/c mouse model of skin inflammation assessed as reduction in ear thickness at 1 or 5 mg/kg applied topically on daily basis
[10] = system: Mus musculus; experiment: Suppression of IMQ-induced psoriasis in BALB/c mouse model of skin inflammation assessed as effect on gross appearance at 1 or 5 mg/kg dosed via drinking water on daily basis
[11] = system: Mus musculus; experiment: Suppression of lung injury in mouse model of Pseudomonas aeruginosa PA103 infection-induced pneumonia assessed as reduction in lavage IL6 levels at 30 or 150 ug, ip pre-treated before infection
[12] = system: Mus musculus; experiment: Suppression of lung injury in mouse model of Pseudomonas aeruginosa PA103 infection-induced pneumonia assessed as reduction in lavage IL-1beta levels at 30 or 150 ug, ip pre-treated before infection
[13] = system: Mus musculus; experiment: Suppression of lung injury in mouse model of Pseudomonas aeruginosa PA103 infection-induced pneumonia assessed as reduction in lavage protein concentration at 30 or 150 ug, ip pre-treated before infection
[14] = system: Mus musculus; experiment: Suppression of IMQ-induced psoriasis in BALB/c mouse model of skin inflammation assessed as effect on gross appearance at 1 or 5 mg/kg applied topically on daily basis
[15] = system: Mus musculus; experiment: Suppression of lung injury in mouse model of Pseudomonas aeruginosa PA103 infection-induced pneumonia assessed as reduction in neutrophil infiltration at 30 or 150 ug, ip pre-treated before infection by May-Grunwald and Geimsa staining based assay
[16] = system: Mus musculus; experiment: Suppression of lung injury in mouse model of Pseudomonas aeruginosa PA103 infection-induced pneumonia assessed as reduction in lavage cell counts at 30 or 150 ug, ip pre-treated before infection
[17] = system: Mus musculus; experiment: Suppression of IMQ-induced psoriasis in BALB/c mouse model of skin inflammation assessed as reduction in spleen weight at 1 or 5 mg/kg applied topically on daily basis
[18] = system: Mus musculus; experiment: Suppression of smoke-induced chronic lung inflammation in mouse assessed as reduction in lavage TNFalpha levels at 100 ug, ip administered as single dose injected after 5 weeks cigarette smoke exposure
[19] = system: Mus musculus; experiment: Suppression of dexamethasone-induced muscle atrophy in C57BL mouse assessed as prevention of muscle wasting in TA muscle at 0.5 to 5 mg/kg/day dosed via drinking water by H and E staining based assay
[20] = system: Mus musculus; experiment: Suppression of IMQ-induced psoriasis in BALB/c mouse model of skin inflammation assessed as reduction in spleen weight at 1 or 5 mg/kg dosed via drinking water on daily basis
[21] = system: Mus musculus; experiment: Suppression of IMQ-induced psoriasis in BALB/c mouse model of skin inflammation assessed as reduction in psoriasis index at 1 or 5 mg/kg applied topically on daily basis
[22] = system: Mus musculus; experiment: Suppression of smoke-induced chronic lung inflammation in mouse assessed as reduction in lavage IL2 levels at 100 ug, ip administered as single dose injected after 5 weeks cigarette smoke exposure
[23] = system: Mus musculus; experiment: Antiinflammatory activity in C57/BL mouse model of lung transplant acute rejection transplanted with BALB/C mouse left lung assessed as reduction in cell infiltration in lung at 5 mg/kg/day, ip for 2 days followed by dosing at 5 mg/kg/day via drinking water for 5 days
[24] = system: Mus musculus; experiment: Suppression of IMQ-induced psoriasis in BALB/c mouse model of skin inflammation assessed as reduction in psoriasis index at 1 or 5 mg/kg dosed via drinking water on daily basis
[25] = system: Mus musculus; experiment: Antiinflammatory activity in C57/BL mouse model of lung transplant acute rejection transplanted with BALB/C mouse left lung assessed as amelioration of neutrophilia infiltration at 5 mg/kg/day, ip for 2 days followed by dosing at 5 mg/kg/day via drinking water for 5 days
[26] = system: Mus musculus; experiment: Suppression of lung injury in mouse model of Pseudomonas aeruginosa PA103 infection-induced pneumonia assessed as reduction in lavage TNFalpha levels at 30 or 150 ug, ip pre-treated before infection
[27] = system: Mus musculus; experiment: Suppression of smoke-induced chronic lung inflammation in mouse assessed as reduction in lavage IFNgamma levels at 100 ug, ip administered as single dose injected after 5 weeks cigarette smoke exposure
[28] = system: Mus musculus; experiment: Suppression of smoke-induced chronic lung inflammation in mouse assessed as reduction in lavage IL6 levels at 100 ug, ip administered as single dose injected after 5 weeks cigarette smoke exposure
[29] = system: Mus musculus; experiment: Suppression of dexamethasone-induced muscle atrophy in C57BL mouse assessed as reduction in TRAF6 protein in TA muscle at 0.5 to 5 mg/kg/day dosed via drinking water by immunoblotting analysis
[30] = system: Mus musculus; experiment: Suppression of lung injury in mouse model of influenza A virus H1N1 infection-induced lung injury assessed as increase in lung compliance at 30 ug/ml dosed via drinking water
[31] = system: Mus musculus; experiment: Suppression of lung injury in mouse model of influenza A virus H1N1 infection-induced lung injury assessed as decrease in lung elastance at 30 ug/ml dosed via drinking water
[32] = system: Mus musculus; experiment: Suppression of lung injury in mouse model of Pseudomonas aeruginosa PA103 infection-induced lung injury assessed as reduction in lavage cell counts at 100 ug, ip pre-treated before infection
[33] = system: Mus musculus; experiment: Suppression of lung injury in mouse model of Pseudomonas aeruginosa PA103 infection-induced lung injury assessed as reduction in lavage TNFalpha levels at 100 ug, ip pre-treated before infection
[34] = system: Mus musculus; experiment: Suppression of lung injury in mouse model of Pseudomonas aeruginosa PA103 infection-induced lung injury assessed as reduction in lavage IL-1beta levels at 100 ug, ip pre-treated before infection
[35] = system: Mus musculus; experiment: Suppression of lung injury in mouse model of influenza A virus H1N1 infection-induced lung injury assessed as decrease in lavage cell counts at 30 ug/ml dosed via drinking water
[36] = system: Mus musculus; experiment: Suppression of lung injury in mouse model of Pseudomonas aeruginosa PA103 infection-induced lung injury assessed as reduction in lavage protein concentration at 100 ug, ip pre-treated before infection
[37] = system: Mus musculus; experiment: Suppression of lung injury in mouse model of influenza A virus H1N1 infection-induced lung injury assessed as decrease in lung edema at 30 ug/ml dosed via drinking water
[38] = system: Mus musculus; experiment: Suppression of lung injury in mouse model of influenza A virus H1N1 infection-induced lung injury assessed as decrease in cell infiltration at 30 ug/ml dosed via drinking water by H and E staining based assay
[39] = system: Mus musculus; experiment: Suppression of lung injury in mouse model of Pseudomonas aeruginosa PA103 infection-induced lung injury assessed as reduction in cell infiltration at 100 ug, ip pre-treated before infection by H and E staining based assay
[40] = system: Mus musculus; experiment: Suppression of lung injury in mouse model of Pseudomonas aeruginosa PA103 infection-induced lung injury assessed as reduction in lung resistance at 100 ug, ip pre-treated before infection
[41] = system: Mus musculus; experiment: Suppression of lung injury in mouse model of Pseudomonas aeruginosa PA103 infection-induced lung injury assessed as increase in compliance at 100 ug, ip pre-treated before infection
[42] = system: Mus musculus; experiment: Suppression of lung injury in mouse model of Pseudomonas aeruginosa PA103 infection-induced lung injury assessed as reduction in lavage IL6 levels at 100 ug, ip pre-treated before infection
[43] = system: Mus musculus; experiment: Suppression of lung injury in mouse model of Pseudomonas aeruginosa PA103 infection-induced lung injury assessed as improve in lung volume at 100 ug, ip pre-treated before infection
[44] = system: Mus musculus; experiment: Suppression of lung injury in mouse model of influenza A virus H1N1 infection-induced lung injury assessed as decrease in lavage protein concentration at 30 ug/ml dosed via drinking water
[45] = system: Mus musculus; experiment: Suppression of lung injury in mouse model of Pseudomonas aeruginosa PA103 infection-induced lung injury assessed as reduction in lung elastance at 100 ug, ip pre-treated before infection
[46] = system: Mus musculus; experiment: Suppression of lung injury in mouse model of influenza A virus H1N1 infection-induced lung injury assessed as increase in mouse survival at 30 ug/ml dosed via drinking water

Measured: Activity

c1cnc(-c2ccc(CNCCNCc3ccc(-c4ncccn4)cc3)cc2)nc1
not listed: [30] | [31] | [32] | [33] | [34] | [35] | [36] | [37] | [38] | [39] | [40] | [41] | [42] | [43] | [44] | [45] | [46]
active: all other assays above

c1ccc(-c2ccc(CNCCNCc3ccc(-c4ccccn4)cc3)cc2)nc1
active: [30] | [31] | [32] | [33] | [34] | [35] | [36] | [37] | [38] | [39] | [40] | [41] | [42] | [43] | [44] | [45] | [46]
